Data from patent US9980943B2, “Methods of treating muscular dystrophy” (BOARD OF REGENTS OF THE NEVADA SYSTEM OF HIGHER EDUCATION, …, priority 2013, dated 2018).

Experiments:
Format in all cases: cell-based, mouse
[1] = system: β-galactosidase in CMV-LacZ C2C12 myotubes; experiment: CMV-LacZ secondary screen in C2C12 myotubes (β-Gal stabilizing assay); details: for CMV-LACZ in Myotubes (β-galactosidase activity relative to DMSO): CMV-LacZ C2C12 myotubes, 96-well format; for CMV-LACZ in Myotubes, signal relative to DMSO: C2C12 CMV-LacZ myotubes, fold relative to DMSO
Procedure, shortened: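 First, C2C12 myoblasts were transfected with a linearized CMV-LACZ vector and clonal lines selected by FDG β-gal assay. Then cells were exposed to compounds at 0.5, 1, 5, 10, 20 and 40 μM in 96-well format, two replicates each, and β-gal measured.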

[2] = system: α7 integrin (LacZ reporter in α7βgal+/− myoblasts); experiment: Myoblast α7+/LacZ integrin FDG assay (Burkin assay in myoblasts, 96-well); details: α7+/LacZ myoblasts, 96-well
[3] = system: α7 integrin (LacZ reporter in α7+/LacZ myotubes); experiment: Myotube α7 integrin FDG assay (Burkin assay in myotubes, 96-well); details: myotubes

Structure (SMILES) | CMV-LACZ in Myotubes (β-galactosidase activity relative to DMSO) ([1]; 5 uM) | CMV-LACZ in Myotubes (β-galactosidase activity relative to DMSO) ([1]; 10 uM) | CMV-LACZ in Myotubes (β-galactosidase activity relative to DMSO) ([1]; 20 uM) | CMV-LACZ in Myotubes (β-galactosidase activity relative to DMSO) ([1]; 40 uM) | CMV-LACZ in Myotubes, signal relative to DMSO ([1]; 5 uM) | CMV-LACZ in Myotubes, signal relative to DMSO ([1]; 10 uM) | CMV-LACZ in Myotubes, signal relative to DMSO ([1]; 20 uM) | CMV-LACZ in Myotubes, signal relative to DMSO ([1]; 40 uM) | Burkin Assay in Myoblasts, signal relative to DMSO ([2]; 0.5 uM) | Burkin Assay in Myoblasts, signal relative to DMSO ([2]; 1 uM) | Burkin Assay in Myoblasts, signal relative to DMSO ([2]; 5 uM) | Burkin Assay in Myoblasts, signal relative to DMSO ([2]; 10 uM) | Burkin Assay in Myoblasts, signal relative to DMSO ([2]; 20 uM) | Burkin Assay in Myoblasts, signal relative to DMSO ([2]; 40 uM) | Burkin Assay in Myotubes, α7 integrin LacZ reporter signal relative to DMSO ([3]; 0.5 uM) | Burkin Assay in Myotubes, α7 integrin LacZ reporter signal relative to DMSO ([3]; 1 uM) | Burkin Assay in Myotubes, α7 integrin LacZ reporter signal relative to DMSO ([3]; 5 uM) | Burkin Assay in Myotubes, α7 integrin LacZ reporter signal relative to DMSO ([3]; 10 uM) | Burkin Assay in Myotubes, α7 integrin LacZ reporter signal relative to DMSO ([3]; 20 uM) | Burkin Assay in Myotubes, α7 integrin LacZ reporter signal relative to DMSO ([3]; 40 uM) | also measured
CC(=O)c1cccc(NC(=O)C(=O)Nc2cccc3ccccc23)c1 [MLS000765108-01] | 1.177 | 1.099 | 0.9927 | 0.97 | – | – | – | – | – | – | – | – | – | – | – | – | – | – | – | – | fold induction at 0.5 µM ([2]; Mus musculus, Myoblast, 48 h, 0.5 uM, read-out: Burkin Assay in Myoblasts, value relative to DMSO): 1.17; fold induction at 1 µM ([2]; Mus musculus, Myoblast, 48 h, 1 uM, read-out: Burkin Assay in Myoblasts, value relative to DMSO): 1.12; fold induction at 5 µM ([2]; Mus musculus, Myoblast, 48 h, 5 uM, read-out: Burkin Assay in Myoblasts, value relative to DMSO): 1.2; fold induction at 10 µM ([2]; Mus musculus, Myoblast, 48 h, 10 uM, read-out: Burkin Assay in Myoblasts, value relative to DMSO): 1.11; fold induction at 20 µM ([2]; Mus musculus, Myoblast, 48 h, 20 uM, read-out: Burkin Assay in Myoblasts, value relative to DMSO): 1.04; fold induction at 40 µM ([2]; Mus musculus, Myoblast, 48 h, 40 uM, read-out: Burkin Assay in Myoblasts, value relative to DMSO): 1.03; fold induction at 0.5 µM ([3]; Mus musculus, Myotube, 0.5 uM, read-out: Burkin Assay in Myotubes (signal relative to DMSO)): 0.872; fold induction at 1 µM ([3]; Mus musculus, Myotube, 1 uM, read-out: Burkin Assay in Myotubes (signal relative to DMSO)): 1.02; fold induction at 5 µM ([3]; Mus musculus, Myotube, 5 uM, read-out: Burkin Assay in Myotubes (signal relative to DMSO)): 1.06; fold induction at 10 µM ([3]; Mus musculus, Myotube, 10 uM, read-out: Burkin Assay in Myotubes (signal relative to DMSO)): 0.609; fold induction at 20 µM ([3]; Mus musculus, Myotube, 20 uM, read-out: Burkin Assay in Myotubes (signal relative to DMSO)): 0.922; fold induction at 40 µM ([3]; Mus musculus, Myotube, 40 uM, read-out: Burkin Assay in Myotubes (signal relative to DMSO)): 0.707
COC(=O)C1=NNC2(C)C(=O)N(c3ccc(C)cc3)C(=O)C12 (stereo not shown) [MLS000767227-01] | – | – | – | – | 1.024 | 1.1 | 0.9975 | 1.1815 | 1.025 | 0.8073 | 0.8577 | 0.9107 | 0.9133 | 0.9283 | 0.8593 | 0.8998 | 0.9645 | 0.844 | 0.7775 | 0.9434 | –
CCCCCCC1CC(=O)NC(=O)N1 (stereo not shown) [MLS000768008-01] | – | – | – | – | 0.8276 | 0.9644 | 1.028 | 0.9429 | 0.9886 | 0.9618 | 0.8976 | 0.8768 | 0.7837 | 0.8787 | 1.073 | 1.179 | 1.11 | 1.273 | 1.098 | 1.2867 | –
COc1cccc(N2C(=O)CC(N3CCc4ccccc4C3)C2=O)c1 (stereo not shown) [MLS000769322-01] | 0.8609 | 1.02 | 1.118 | 1.091 | – | – | – | – | – | – | – | – | – | – | – | – | – | – | – | – | Burkin Assay in Myoblasts, value relative to DMSO ([2]; 0.5 uM): 0.9535; Burkin Assay in Myoblasts, value relative to DMSO ([2]; 1 uM): 0.9354; Burkin Assay in Myoblasts, value relative to DMSO ([2]; 5 uM): 0.9653; Burkin Assay in Myoblasts, value relative to DMSO ([2]; 10 uM): 1.0771; Burkin Assay in Myoblasts, value relative to DMSO ([2]; 20 uM): 1.006; Burkin Assay in Myoblasts, value relative to DMSO ([2]; 40 uM): 0.955; Burkin Assay in Myotubes (signal relative to DMSO) ([3]; 0.5 uM): 0.9609; Burkin Assay in Myotubes (signal relative to DMSO) ([3]; 1 uM): 1.055; Burkin Assay in Myotubes (signal relative to DMSO) ([3]; 5 uM): 1.1195; Burkin Assay in Myotubes (signal relative to DMSO) ([3]; 10 uM): 1.165; Burkin Assay in Myotubes (signal relative to DMSO) ([3]; 20 uM): 1.067; Burkin Assay in Myotubes (signal relative to DMSO) ([3]; 40 uM): 1.019
